# Assay results reported in publication PMC4890880 (ACS infectious diseases, 2016).
# Test system: HepG2-A16-CD81EGFP cells
# Experiment: not given
# Conditions: human, 50 uM
SMILES,HepG2 Tox% @ 50 uM rep1 [%],HepG2 Tox% @ 50 uM rep2 [%]
Oc1c(C(Nc2ccccn2)c2cccc(Oc3ccccc3)c2)ccc2cccnc12 (stereo not shown) [MMV665814],-17,
CCC(c1ccccc1)c1nn2c(-c3cccs3)nnc2s1 (stereo not shown) [MMV665876],,96
O=C(Nc1cccc(-c2nc3ccccc3[nH]2)c1)c1cccc(NC(=O)c2ccco2)c1 [MMV665883],,99
O=C(Nc1ccccc1O)c1ccc(Oc2cccc(C(=O)Nc3ccccc3O)c2)cc1 [MMV665888],,100
COc1ccc(N2CCN(C(CNC(=O)CC(C)(C)C)c3ccc4c(c3)OCO4)CC2)cc1 (stereo not shown) [MMV665908],-10,
CCC(C)NCC(O)(c1ccc(Cl)cc1)c1ccc(Cl)cc1 (stereo not shown) [MMV665928],,102
O=C(NCC1Cc2cccc(-c3ccncc3)c2O1)c1csc2c1CCCC2 (stereo not shown) [MMV665954],,98
CCOC(=O)C1=C(C)N=c2sc(=Cc3cc(Cl)ccc3O)c(=O)n2C1c1ccc(OC)cc1 (stereo not shown) [MMV665971],100,
COc1ccc(-c2cc3c(nn2)-c2ccccc2C3=O)cc1 [MMV666026],21,
COCCNC(=O)c1ccc(OC2CCN(Cc3ccc(F)c(F)c3)CC2)c(Cl)c1 [MMV666072],,97
CCOC(=O)C1=C(C)N=c2sc(=Cc3ccccc3O)c(=O)n2C1c1ccc(OC)c2ccccc12 (stereo not shown) [MMV666604],-8,
CCOc1ccc(N2C(N)=NC(N)=NC2(C)C)cc1 [MMV667486],-13,
CN(C)c1ccc(N2C(N)=NC(N)=NC2(C)C)cc1 [MMV667487],-9,

# Test system: HepG2-A16-CD81EGFP cells
# Experiment: cells
# Conditions: Homo sapiens, HepG2, read-out: HepG2 Tox% @ 50 uM rep1
row,SMILES,cytotoxicity at 50 µM [%]
1,COc1ccc2c(c1OC)C(=O)N1c3ccccc3N=C(c3ccc(C)cc3)CC21 (stereo not shown) [MMV000917],15
2,CN1CCN(c2nc(Nc3ccc(O)cc3)nc3ccccc23)CC1 [MMV000986],25

# Same assay, conditions: Homo sapiens, HepG2, read-out: Tox IC50
row,SMILES,IC50 [µM]
1,COc1ccc2c(c1OC)C(=O)N1c3ccccc3N=C(c3ccc(C)cc3)CC21 (stereo not shown) [MMV000917],> 50
2,CN1CCN(c2nc(Nc3ccc(O)cc3)nc3ccccc23)CC1 [MMV000986],> 50

# Same assay, conditions: Homo sapiens, HepG2, read-out: Tox max inhibition (%) @ 50 uM
row,SMILES,inhibition at 50 µM [%]
1,COc1ccc2c(c1OC)C(=O)N1c3ccccc3N=C(c3ccc(C)cc3)CC21 (stereo not shown) [MMV000917],7
2,CN1CCN(c2nc(Nc3ccc(O)cc3)nc3ccccc23)CC1 [MMV000986],7

# Test system: HepG2-A16-CD81EGFP cells
# Experiment: cells
# Conditions: Homo sapiens, HepG2, read-out: % inhibition
row,SMILES,inhibition at 50 µM [%]
1,Oc1c(C(Nc2ccccn2)c2cccc(Oc3ccccc3)c2)ccc2cccnc12 (stereo not shown) [MMV665814],-17.3
2,CCC(c1ccccc1)c1nn2c(-c3cccs3)nnc2s1 (stereo not shown) [MMV665876],93.6
3,O=C(Nc1cccc(-c2nc3ccccc3[nH]2)c1)c1cccc(NC(=O)c2ccco2)c1 [MMV665883],97.2
4,O=C(Nc1ccccc1O)c1ccc(Oc2cccc(C(=O)Nc3ccccc3O)c2)cc1 [MMV665888],98.7
5,COc1ccc(N2CCN(C(CNC(=O)CC(C)(C)C)c3ccc4c(c3)OCO4)CC2)cc1 (stereo not shown) [MMV665908],-9.68
6,CCC(C)NCC(O)(c1ccc(Cl)cc1)c1ccc(Cl)cc1 (stereo not shown) [MMV665928],99.2
7,O=C(NCC1Cc2cccc(-c3ccncc3)c2O1)c1csc2c1CCCC2 (stereo not shown) [MMV665954],95.9
8,CCOC(=O)C1=C(C)N=c2sc(=Cc3cc(Cl)ccc3O)c(=O)n2C1c1ccc(OC)cc1 (stereo not shown) [MMV665971],99.7
9,COc1ccc(-c2cc3c(nn2)-c2ccccc2C3=O)cc1 [MMV666026],21.5
10,COCCNC(=O)c1ccc(OC2CCN(Cc3ccc(F)c(F)c3)CC2)c(Cl)c1 [MMV666072],90.7
11,CCOC(=O)C1=C(C)N=c2sc(=Cc3ccccc3O)c(=O)n2C1c1ccc(OC)c2ccccc12 (stereo not shown) [MMV666604],-7.73
12,CCOc1ccc(N2C(N)=NC(N)=NC2(C)C)cc1 [MMV667486],-13.4
13,CN(C)c1ccc(N2C(N)=NC(N)=NC2(C)C)cc1 [MMV667487],-8.72

# Test system: Plasmodium berghei (Pb-Luc) exoerythrocytic-stage parasites
# Experiment: microbe, parasite or virus in culture
# Conditions: read-out: Inhibition% @ 50 uM rep1
row,SMILES,inhibition at 50 µM [%]
1,COc1ccc2c(c1OC)C(=O)N1c3ccccc3N=C(c3ccc(C)cc3)CC21 (stereo not shown) [MMV000917],96
2,CN1CCN(c2nc(Nc3ccc(O)cc3)nc3ccccc23)CC1 [MMV000986],86
3,Oc1c(C(Nc2ccccn2)c2cccc(Oc3ccccc3)c2)ccc2cccnc12 (stereo not shown) [MMV665814],-33
4,CCC(c1ccccc1)c1nn2c(-c3cccs3)nnc2s1 (stereo not shown) [MMV665876],99
5,O=C(Nc1cccc(-c2nc3ccccc3[nH]2)c1)c1cccc(NC(=O)c2ccco2)c1 [MMV665883],101
6,O=C(Nc1ccccc1O)c1ccc(Oc2cccc(C(=O)Nc3ccccc3O)c2)cc1 [MMV665888],102
7,COc1ccc(N2CCN(C(CNC(=O)CC(C)(C)C)c3ccc4c(c3)OCO4)CC2)cc1 (stereo not shown) [MMV665908],61
8,CCC(C)NCC(O)(c1ccc(Cl)cc1)c1ccc(Cl)cc1 (stereo not shown) [MMV665928],104
9,O=C(NCC1Cc2cccc(-c3ccncc3)c2O1)c1csc2c1CCCC2 (stereo not shown) [MMV665954],100
10,CCOC(=O)C1=C(C)N=c2sc(=Cc3cc(Cl)ccc3O)c(=O)n2C1c1ccc(OC)cc1 (stereo not shown) [MMV665971],103
11,COc1ccc(-c2cc3c(nn2)-c2ccccc2C3=O)cc1 [MMV666026],61
12,COCCNC(=O)c1ccc(OC2CCN(Cc3ccc(F)c(F)c3)CC2)c(Cl)c1 [MMV666072],100
13,CCOC(=O)C1=C(C)N=c2sc(=Cc3ccccc3O)c(=O)n2C1c1ccc(OC)c2ccccc12 (stereo not shown) [MMV666604],53
14,CCOc1ccc(N2C(N)=NC(N)=NC2(C)C)cc1 [MMV667486],21
15,CN(C)c1ccc(N2C(N)=NC(N)=NC2(C)C)cc1 [MMV667487],71

# Same assay, conditions: read-out: Inhibition% @ 50 uM rep2
row,SMILES,inhibition at 50 µM [%]
1,COc1ccc2c(c1OC)C(=O)N1c3ccccc3N=C(c3ccc(C)cc3)CC21 (stereo not shown) [MMV000917],95
2,CN1CCN(c2nc(Nc3ccc(O)cc3)nc3ccccc23)CC1 [MMV000986],90
3,Oc1c(C(Nc2ccccn2)c2cccc(Oc3ccccc3)c2)ccc2cccnc12 (stereo not shown) [MMV665814],-6
4,CCC(c1ccccc1)c1nn2c(-c3cccs3)nnc2s1 (stereo not shown) [MMV665876],103
5,O=C(Nc1cccc(-c2nc3ccccc3[nH]2)c1)c1cccc(NC(=O)c2ccco2)c1 [MMV665883],102
6,O=C(Nc1ccccc1O)c1ccc(Oc2cccc(C(=O)Nc3ccccc3O)c2)cc1 [MMV665888],104
7,COc1ccc(N2CCN(C(CNC(=O)CC(C)(C)C)c3ccc4c(c3)OCO4)CC2)cc1 (stereo not shown) [MMV665908],66
8,CCC(C)NCC(O)(c1ccc(Cl)cc1)c1ccc(Cl)cc1 (stereo not shown) [MMV665928],106
9,O=C(NCC1Cc2cccc(-c3ccncc3)c2O1)c1csc2c1CCCC2 (stereo not shown) [MMV665954],102
10,CCOC(=O)C1=C(C)N=c2sc(=Cc3cc(Cl)ccc3O)c(=O)n2C1c1ccc(OC)cc1 (stereo not shown) [MMV665971],104
11,COc1ccc(-c2cc3c(nn2)-c2ccccc2C3=O)cc1 [MMV666026],71
12,COCCNC(=O)c1ccc(OC2CCN(Cc3ccc(F)c(F)c3)CC2)c(Cl)c1 [MMV666072],102
13,CCOC(=O)C1=C(C)N=c2sc(=Cc3ccccc3O)c(=O)n2C1c1ccc(OC)c2ccccc12 (stereo not shown) [MMV666604],33
14,CCOc1ccc(N2C(N)=NC(N)=NC2(C)C)cc1 [MMV667486],22
15,CN(C)c1ccc(N2C(N)=NC(N)=NC2(C)C)cc1 [MMV667487],82

# Same assay, conditions: read-out: PbLuc IC50, dose response, 1/3 dilutions, max conc. 10 or 50 uM, unit inferred
row,SMILES,IC50 [µM]
1,CN1CCN(c2nc(Nc3ccc(O)cc3)nc3ccccc23)CC1 [MMV000986],20.4

# Same assay, conditions: read-out: PbLuc IC50, dose response, unit inferred
row,SMILES,IC50 [µM]
1,COc1ccc2c(c1OC)C(=O)N1c3ccccc3N=C(c3ccc(C)cc3)CC21 (stereo not shown) [MMV000917],> 50

# Same assay, conditions: read-out: PbLuc max inhibition (%) @ 50 uM
row,SMILES,inhibition at 50 µM [%]
1,COc1ccc2c(c1OC)C(=O)N1c3ccccc3N=C(c3ccc(C)cc3)CC21 (stereo not shown) [MMV000917],96
2,CN1CCN(c2nc(Nc3ccc(O)cc3)nc3ccccc23)CC1 [MMV000986],94

# Molecular target: QuantiLum Recombinant Luciferase (Photinus pyralis, UniProt P08659)
# Sequence (P08659 whole entry): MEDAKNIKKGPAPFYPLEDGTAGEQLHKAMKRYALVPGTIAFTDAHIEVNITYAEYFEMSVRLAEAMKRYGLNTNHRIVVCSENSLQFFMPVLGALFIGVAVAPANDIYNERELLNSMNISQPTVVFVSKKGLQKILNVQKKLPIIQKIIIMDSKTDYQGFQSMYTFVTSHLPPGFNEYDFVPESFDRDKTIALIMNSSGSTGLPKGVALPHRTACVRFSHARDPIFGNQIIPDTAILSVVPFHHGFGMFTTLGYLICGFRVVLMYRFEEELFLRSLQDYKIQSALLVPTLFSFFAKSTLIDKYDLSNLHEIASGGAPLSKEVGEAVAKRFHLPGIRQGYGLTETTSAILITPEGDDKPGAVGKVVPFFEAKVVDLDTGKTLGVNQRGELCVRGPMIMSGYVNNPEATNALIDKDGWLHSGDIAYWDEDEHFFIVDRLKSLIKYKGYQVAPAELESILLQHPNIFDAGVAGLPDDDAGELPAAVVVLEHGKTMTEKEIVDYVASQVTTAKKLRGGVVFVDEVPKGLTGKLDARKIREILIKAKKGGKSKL
# Experiment: Bioluminescence quantification of compound luciferase inhibition
# Conditions: not given
row,SMILES,IC50 [µM]
1,COc1ccc2c(c1OC)C(=O)N1c3ccccc3N=C(c3ccc(C)cc3)CC21 (stereo not shown) [MMV000917],> 50
2,CN1CCN(c2nc(Nc3ccc(O)cc3)nc3ccccc23)CC1 [MMV000986],21.9

# Same assay, conditions: read-out: LucInhib max inhibition
row,SMILES,Emax [%]
1,COc1ccc2c(c1OC)C(=O)N1c3ccccc3N=C(c3ccc(C)cc3)CC21 (stereo not shown) [MMV000917],23
2,CN1CCN(c2nc(Nc3ccc(O)cc3)nc3ccccc23)CC1 [MMV000986],69
